Laboratory results reported in patent publication US20230391748A1, “BICYCLIC INHIBITORS OF IRAK” (priority 2022, published 2023).

Tests used:
[1] = system: IL23p19 in THP-1 Cells; assay: LPS Induced IL23p19 in THP-1 Cells (with IFNγ Primed) Assay; type: cell-based; conditions: Homo sapiens, THP-1, 18 h, read-out: IL23 (THP, LPS) (IC50, μM)
Outline: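 THP-1 cells (50K/well) primed with IFNγ (50 ng/mL) about 18 h, then given compound and stimulated with LPS for 18 h at 37 °C. Secreted IL-23p19 measured by sandwich ELISA with chemiluminescent read-out, giving EC50. Cell Titer Glo used on the remaining cells for toxicity.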

[2] = system: TNF-α in human PBMCs; assay: R848-induced TNF-α in human PBMCs Assay; type: cell-based; conditions: Homo sapiens, PBMC, 4 h, read-out: TNFα (PBMC, R848) (IC50, μM)
Outline: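 Human PBMCs at 200K/well were pretreated with compound, then R848-stimulated for 4 h at 37 °C, 5% CO2. Supernatant TNF-α quantified by chemiluminescent ELISA; EC50 from curve fitting.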

[3] = target: IRAK4 (Homo sapiens (Human), UniProt Q9NWZ3); assay: IRAK4 ADP-Glo Assay; type: biochemical; conditions: MBP substrate
Chain of IRAK4 (Q9NWZ3 whole entry): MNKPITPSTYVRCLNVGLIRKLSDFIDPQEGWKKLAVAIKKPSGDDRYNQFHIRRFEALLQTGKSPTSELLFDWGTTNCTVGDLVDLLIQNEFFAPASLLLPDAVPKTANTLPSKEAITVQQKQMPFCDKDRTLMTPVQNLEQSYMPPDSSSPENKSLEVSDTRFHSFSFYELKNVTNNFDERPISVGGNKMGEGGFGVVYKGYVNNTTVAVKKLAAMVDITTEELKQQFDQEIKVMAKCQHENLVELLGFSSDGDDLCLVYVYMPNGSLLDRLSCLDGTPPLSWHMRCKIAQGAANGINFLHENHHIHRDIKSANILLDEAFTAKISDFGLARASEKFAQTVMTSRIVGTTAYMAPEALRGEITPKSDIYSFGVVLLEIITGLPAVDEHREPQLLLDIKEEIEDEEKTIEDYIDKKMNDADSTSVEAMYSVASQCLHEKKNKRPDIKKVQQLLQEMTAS
Outline: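 Human IRAK4 kinase reaction with MBP substrate plus ATP in Tris-HCl/MgCl2/BSA/DTT buffer, pH 7.4, run 60 min at room temperature or 30 min at 30 °C. ADP formed was measured by ADP-Glo luminescence after ATP depletion (40 min) and detection reagent (30 min).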

[4] = system: TNF-α in Human Primary Monocyte-Derived Dendritic Cells; assay: Gardiquimod-Induced TNF-α in Human Primary Monocyte-Derived Dendritic Cells; type: cell-based; conditions: Dendritic cell, IFNγ-primed monocyte-derived dendritic cells, 4 μg/ml Gardiquimod, 6 hours, TNF-α ELISA, read-out: TNFα (DC, GARD) (IC50)
Outline: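 Monocytes differentiated 7 days with GM-CSF and IL-4, then primed 24 h with 50 ng/ml IFN-γ. Compound added 1 h before 6 h stimulation with 4 μg/ml Gardiquimod, 0.5% DMSO final. Supernatant TNF-α measured by chemiluminescent ELISA; EC50 from curve fitting.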

SMILES	IC50 [1] [µM]	IC50 [2] [µM]	IC50 [3] [nM]	IC50 [4] [nM]
CC(C)Oc1cc2c(OC[C@@H]3CCC(=O)N3)ncc(-c3cnn(CCC4CCOCC4)c3)c2cc1C(N)=O [Compound I-37, (S)-7-isopropoxy-1-((5-oxopyrrolidin-2-yl)methoxy)-4-(1-(2-(tetrahydro-2H-pyran-4-yl)ethyl)-1H-pyrazol-4-yl)isoquinoline-6-carboxamide]	1.34	0.324	13.7	296
CC(C)Oc1cc2c(OC[C@@H]3CCC(=O)N3)ncc(-c3cnn(CCN4CCOCC4)c3)c2cc1C(N)=O [Compound I-38, (S)-7-isopropoxy-4-(1-(2-morpholinoethyl)-1H-pyrazol-4-yl)-1-((5-oxopyrrolidin-2-yl)methoxy)isoquinoline-6-carboxamide]	3.41	1.49	21	4030
CCO[C@H]1CC[C@H](n2cc(-c3cnc(OC[C@@H]4CCC(=O)N4)c4cc(OC(C)C)c(C(N)=O)cc34)cn2)CC1 [Compound I-39, 4-(1-(trans-4-ethoxycyclohexyl)-1H-pyrazol-4-yl)-7-isopropoxy-1-(((S)-5-oxopyrrolidin-2-yl)methoxy)isoquinoline-6-carboxamide]	0.775	0.693	33.3	3520
CC(C)Oc1cc2c(OC[C@@H]3CCC(=O)N3)ncc(-c3cnn([C@H]4CC[C@](C)(O)CC4)c3)c2cc1C(N)=O [Compound I-40, 4-(1-((1r,4S)-4-hydroxy-4-methylcyclohexyl)-1H-pyrazol-4-yl)-7-isopropoxy-1-(((S)-5-oxopyrrolidin-2-yl)methoxy)isoquinoline-6-carboxamide]	0.817	0.188	17.1	2420
CC(C)Oc1cc2c(OC[C@@H]3CCC(=O)N3)ncc(-c3cnn([C@H]4CC[C@@](C)(O)CC4)c3)c2cc1C(N)=O [Compound I-41, 4-(1-((1s,4R)-4-hydroxy-4-methylcyclohexyl)-1H-pyrazol-4-yl)-7-isopropoxy-1-(((S)-5-oxopyrrolidin-2-yl)methoxy)isoquinoline-6-carboxamide]	4.61	0.509	37.6	10000
CCO[C@H]1C[C@@H](n2cc(-c3cnc(OC[C@@H]4CCC(=O)N4)c4cc(OC(C)C)c(C(N)=O)cc34)cn2)C1 [Compound I-42, 4-(1-(cis-3-ethoxycyclobutyl)-1H-pyrazol-4-yl)-7-isopropoxy-1-(((S)-5-oxopyrrolidin-2-yl)methoxy)isoquinoline-6-carboxamide]	0.72	0.241	6.4	135
CC(C)Oc1cc2c(OC[C@@H]3CCC(=O)N3)ncc(-c3cnn([C@H]4C[C@@H](N(C)C)C4)c3)c2cc1C(N)=O [Compound I-43, 4-(1-(cis-3-(dimethylamino)cyclobutyl)-1H-pyrazol-4-yl)-7-isopropoxy-1-(((S)-5-oxopyrrolidin-2-yl)methoxy)isoquinoline-6-carboxamide]	3.1	0.701	5	355
CC(C)Oc1cc2c(OC[C@@H]3CCC(=O)N3)ncc(-c3cnn(C4CCN(C(=O)OC(C)(C)C)CC4)c3)c2cc1C(N)=O [Compound I-44, tert-butyl (S)-4-(4-(6-carbamoyl-7-isopropoxy-1-((5-oxopyrrolidin-2-yl)methoxy)isoquinolin-4-yl)-1H-pyrazol-1-yl)piperidine-1-carboxylate]	0.937	0.727	20.9	1050
CC(C)Oc1cc2c(OC[C@@H]3CCC(=O)N3)ncc(-c3cnn(C4CCNCC4)c3)c2cc1C(N)=O [Compound I-45, (S)-7-isopropoxy-1-((5-oxopyrrolidin-2-yl)methoxy)-4-(1-(piperidin-4-yl)-1H-pyrazol-4-yl)isoquinoline-6-carboxamide]	10.9	10	18.6	1360
